Test results as given in patent publication US8795964B2, “GRM3 mutations and use thereof for the diagnosis and treatment of melanoma” (The United States of America, as represented by the …, priority 2010, dated 2014).

Columns and labels:
Format in all cases: cell-based, human
MEK = assay: Immunoblot of Erk1/2 phosphorylation in melanoma cell lines treated with AZD-6244; settings: 1 hour treatment
Procedure: (§1) FIGS. 5A-5E: Melanoma lines expressing GRM3 mutants show increased sensitivity to inhibition of MEK by AZD-6244. (FIG. 5A) Immunoblot analysis of representative melanoma cell lines harboring either WT or mutant GRM3. The cells were treated with the indicated concentration of AZD-6244 and analyzed for Erk1/2 expression and phosphorylation. Cells were treated for 1 hour with AZD-6244 or vehicle alone as control. Lysates were subjected to protein blot analysis with α-Eek, anti-P-Erk1/2 (α-P-Erk1/2) and anti-GAPDH as a loading control. (FIG. 5B) Representative dose-response curves showing efficacy of AZD-6244 against GRM3 mutant lines compared to WT GRM3 lines. Relative cell number after cells were treated for 72 hours with increasing concentrations (0.01-30 μM) of AZD-6244, as estimated by CellTiterGlo and plotted as percent survival, as compared to vehicle-treated control, versus log AZD-6244 concentration in nM (where 1 is 10 nM AZD-6244). […] (FIG. 5D) fluorescence activated cells sorting (FACS) analysis of WT (2T) and A190V mutant (17T) cells showing cell cycle distribution (propidium iodide (PI) staining, x axis) versus cell counts (y axis). […] (FIG. 5D) Quantification of FACS-sorted AZD-6244-treated cells. The percentage of apoptotic cells was determined based on the sub-G1 population for vehicle-treated cells or 1 AZD-6244 treated cells. […]

[1] = test system: 63T-Glu573Lys melanoma cells; assay: Growth inhibition by AZD-6244 of mutant GRM3 cells (63T) transduced with empty vector or WT GRM3; settings: 63T cells, 72 hours treatment, CellTiterGlo
Procedure: FIGS. 12A-12C: Expression of WT GRM3 in a mutant GRM3 background desensitizes cells to AZD-6244 inhibition. (FIG. 12A) Cell lysates from 63T cells transduced with empty vector or WT GRM3 were analyzed by western blotting using anti-FLAG-HRP and anti-GAPDH as a loading control. (FIG. 12B) Melanoma cells harboring WT (13T) or mutant GRM3 (63T-Glu573Lys) transduced with empty vector or WT GRM3 were tested for growth inhibition by AZD-6244. Cells were plated and treated with AZD-6244 concentrations ranging from 2 nM to 30 μM for 72 hours prior to analysis using CellTiterGlo and GraphPad Prism5. EC50 dose-response curves were generated from GraphPad using four-parameter nonlinear regression. (FIG. 12C) EC50 values for inhibition of cell growth by 72 h treatment with AZD-6244 of the indicated melanoma cell lines.
To test AZD-6244 inhibition of cells that had been stimulated with DCG-IV to activate MEK1/2, melanoma cells were plated in 96-well plates at 2,000 cells per well in either RPMI-1640/0.5% FBS/2.5 μM DCG-IV or RPMI-1640/10% FBS and incubated for 24 hours prior to addition of inhibitor at concentrations from 2 nM to 30 μM. Once the inhibitor was added, cells were incubated for 72 hours at 37° C. Plates were then analyzed as described above. […]

[2] = test system: melanoma cells harboring WT or mutant GRM3; assay: Flow cytometry (FACS) cell cycle analysis, sub-G1 population; settings: AZD-6244 2 μM for 72 hours, PI staining
Procedure: as §1, with “lines.” for “lines. Relative cell number after cells were treated for 72 hours with increasing concentrations (0.01-30 μM) of AZD-6244, as estimated by CellTiterGlo and plotted as percent survival, as compared to vehicle-treated control, versus log AZD-6244 concentration in nM (where 1 is 10 nM AZD-6244).”
Melanoma cells were seeded into T25 flasks at a density of 3×10^5 cells per flask in normal complete T2 medium and incubated at 37° C. for 24 hours prior to addition of AZD-6244 (cat #S1008) (Selleck Chemicals LLC-Houston, Tex.). […] Cellular DNA content was analyzed on Becton Dickinson FACSCalibur™ using CellQuest software. […]

PARP cleavage = assay: Immunoblot of PARP cleavage after AZD-6244 treatment; settings: lysates from FACS analyzed cells
A375 pooled GRM3 clones = assay: Migration assay (Boyden chamber), A375 pooled GRM3 clones with or without DCG-IV; settings: 2.5 μM DCG-IV, serum-free medium in top chamber
Procedure: (§2) FIGS. 3A-3C: GRM3 mutations increase cell migration in vitro and in vivo. (FIG. 3A) A375 pooled GRM3 clones in the absence of stimulus (i) migrate as well as those stimulated with the group II metabotropic agonist DCG-IV (ii). A375 clones were seeded in Boyden chambers in either the absence of stimulus (i) or in the presence of 2.5 μM DCG-IV (ii) and assessed for their ability to migrate 16 hours later. (FIG. 3B) Mel-STR pooled GRM3 clones were analyzed for migration as described in (FIG. 3A). Stained wells were analyzed using a Zeiss microscope 10× lens and counted with NIH ImageJ software. (FIG. 3C) non-obese diabetic (NOD)/severe combined immunodeficiency (SCID) mice were intravenously injected with A375 pooled GRM3 clones expressing WT, G561E, S610L, E767K, or E870K GRM3, or vector alone, and examined after nine weeks. (i) Graph indicates the number of mice that had lung macrometastases. (ii) Representative images of lungs from mice injected with vector, WT or mutant expressing A375 clones.
(§3) Mel-STR pooled clones were seeded into pre-conditioned migration wells (8.0 μm—BD Biocoat, BD Biosciences) at 30,000 cells per well in serum-free medium or serum-free medium plus 2.5 μM DCG-IV in the top chamber. […] Inserts were analyzed and the number of cells migrated per field view was quantitated using ImageJ (NIH software). […]

[3] = test system: Mel-STR pooled GRM3 clones; assay: Migration assay (Boyden chamber), Mel-STR pooled GRM3 clones with or without DCG-IV; settings: 2.5 μM DCG-IV, serum-free medium in top chamber
Procedure: as §2, §3

Compound | relative degree of MEK inhibition, mutant versus WT GRM3 cells (MEK) | inhibition of MEK as measured by phosphorylated ERK (p-ERK) levels (MEK; mutant as well as WT GRM3 melanoma cells) | resistance of cells overexpressing WT GRM3 in a mutant GRM3 background compared to control infected cells (cell proliferation) [1] | subG1 population (apoptotic cells) in mutant GRM3 cells compared to WT cells [2] | cleaved PARP in mutant GRM3 lines compared to WT cells (PARP cleavage) | migration of vector and WT GRM3 expressing cells upon stimulation (A375 pooled GRM3 clones) | migration of vector and WT GRM3 expressing cells upon stimulation [3]
Cn1cnc2c(F)c(Nc3ccc(Br)cc3Cl)c(C(=O)NOCCO)cc21 [AZD-6244] | greater for the mutant cells than for the WT cells | inhibited MEK | four-fold increased resistance | significant increase | increased levels of cleaved PARP | – | –
N[C@H](C(=O)O)C1[C@@H](C(=O)O)[C@@H]1C(=O)O (stereo partly shown) [DCG-IV] | – | – | – | – | – | migrated to a similar extent as mutant GRM3 expressing cells in the absence of stimuli | migrated to a similar extent as mutant GRM3 expressing cells in the absence of stimuli
